Results on seven compounds are retold here after US7091199B1, “Thienoisoxazole phenoxy unsubstituted ethyl and propyl derivatives useful as d4 antagonists” (Aventis Pharmaceuticals Inc., priority 1999, dated 2006).

Counter-ions that a name gives are not always drawn.

The target of data set [1] is T1, human D4 receptor (D4.2 sub-type) (Homo sapiens, UniProt P21917, DEL271-302).
T1 sequence (P21917 with tags, fused parts or gaps DEL271-302): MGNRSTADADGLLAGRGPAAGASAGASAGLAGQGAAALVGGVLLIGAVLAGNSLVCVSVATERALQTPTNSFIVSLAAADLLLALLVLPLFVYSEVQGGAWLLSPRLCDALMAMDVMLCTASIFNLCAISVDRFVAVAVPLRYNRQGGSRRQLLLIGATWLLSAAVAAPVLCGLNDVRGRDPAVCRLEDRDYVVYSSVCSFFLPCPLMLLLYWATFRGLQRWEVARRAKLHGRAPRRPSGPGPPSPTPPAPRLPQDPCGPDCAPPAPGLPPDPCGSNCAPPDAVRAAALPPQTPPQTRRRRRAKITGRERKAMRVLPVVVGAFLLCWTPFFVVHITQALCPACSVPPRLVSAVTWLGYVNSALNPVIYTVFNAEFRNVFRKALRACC
Nature of the data set: D4 receptor binding assay (3H-spiperone displacement). The conditions noted are these: for Ki: 3H-spiperone 0.25 nM, HEK cell membranes, human D4.2, read-out: D4 RBA Ki. How it is done:
D4 receptor-binding affinities of the compounds were evaluated according to their ability to reduce binding of ^3H-spiperone as compared to the reference compound clozapine. The potency of the test compound to reduce ^3H-spiperone binding directly correlated to its binding affinity for the receptor.
[…] (human embryonic kidney) cells stably transfected with human D4 receptor (D4.2 sub-type) were grown in NUNC cell factories for 5 days (75% confluency) without a media change and removed with versene (approximately 19 mg of cells per cell factory tray). The cells were then centrifuged in a Sorval centrifuge for 10 min, 5000 rpm (GS3 rotor) and the pellets quickly frozen in liquid nitrogen and stored at −80° C. until used in binding assay. When used in the assay, cells were thawed on ice for 20 min and then 10 mL of incubation buffer (50 mM Tris, 1 mM EDTA, 4 mM MgCl2, 5 mM KCl, 1.5 mM CaCl2, 120 mM NaCl, pH 7.4) was added. The cells were then vortexed to resuspend pellet and homogenized with a Kinematica, CH-6010 Kriens-LU, homogenizer for 15 seconds at setting 7. Concentration of receptor protein was determined using the Pierce BCA assay.
The incubation was started by the addition of 100 μl (50 μg protein) membrane homogenate to a solution of 300 μl incubation buffer and 100 μl (0.25 nM final conc.) ^3H-spiperone (90 Ci/mmol, Amersham, diluted in borosilicate glass vial) in 96-well polypropylene plates (1 mL per well). The plates were vortexed and incubated at room temperature for 90 minutes. The binding reaction was stopped by filtering using a Packard Harvester. The samples were filtered under vacuum over glass fibre filter plates (Whatman GF/B) presoaked for 2 hours in 0.3% polyethylenimine (PEI) in 50 mM Tris buffer (pH 7.4). The filters were then washed 6 times with 7 mL ice cold 50 mM Tris buffer (pH 7.4). The filter plates were dried overnight and 35 μl of Microscint-O (Packard) was added. The plates were sealed and counted in the Packard Top Count (3 minutes per well).
The incubation was started by the addition of 100 μl (50 μg protein) membrane homogenate to a solution of 200 μl incubation buffer, 100 μl ^3H-spiperone (90 Ci/mmol, Amersham, diluted in borosilicate glass vial to 0.25 nM final conc.) and 100 μl (30 μM final conc.) of fresh dopamine (Research Biochemicals Inc., light protected and dissolved in incubation buffer) in 96-well polypropylene plates (1 mL per well). The plates were vortexed and incubated at room temperature for 90 minutes at which time the binding reaction was stopped by filtering. The filters were washed and counted using the same procedure as in the total binding assay described above to give the non-specific binding value (NSB).
The incubation was started by the addition, in 96-well polypropylene plates (1 mL per well), of 100 μl (50 μg protein) membrane homogenate to a solution of 200 μl incubation buffer, 100 μl (0.25 nM final conc.) ^3H-spiperone (90 Ci/mmol, Amersham, diluted in borosilicate glass vial) and 100 μl of test compound that was prepared from 1 mM stock dissolved in DMSO and stored at −20° C. in polypropylene cryogenic storage vials until dilution in incubation buffer in 96-well polypropylene plates. The plates were vortexed and incubated at room temperature for 90 minutes at which time the binding reaction was stopped by filtering. The filters were washed and counted using the same procedure as in the total binding assay described above to give the displacement binding value (BD).
The test compounds were initially assayed at 1 and 0.1 μM and then at a range of concentrations chosen such that the middle dose would cause about 50% inhibition of ^3H-spiperone binding. Specific binding in the absence of test compound (B0) was the difference of total binding (BT) minus non-specific binding (NSB) and similarly specific binding (in the presence of test compound) (B) was the difference of displacement binding (BD) minus non-specific binding (NSB). […]

For data set [2], the system named is CD-1 or C57 male mice (MK-801 induced stereotypy). The experiment in a line: MK-801 Stereotypy in Mice. The conditions noted are these: for inhibition in vivo at 20 mg/kg: po, read-out: Antag. of MK 801 Stereotypy % Inhib. @ 20 mg/kg. It counts as in vivo. How it is done: Mk-801 dose-dependently induces characteristic stereotypy marked by locomotion and falling behavior. This MK-801 induced behavior can be antagonized by novel neuroleptic agents. This assay can also assess time course effects following drug administration.
CD-1 or C57 male mice are individually placed in activity boxes (8 mice/drug) and allowed to acclimate for 60 minutes. The mice are then administered test compounds either i.p., s.c., or p.o., at 15, 30, or 60 minutes prior to MK-801 (0.2 mg/kg) administration. Mice are observed for the presence of locomotion and falling behaviors 15 minutes following MK-801. For the duration of action studies the test compounds are administered i.p., s.c., or p.o., at 30, 60, 120, 180, and 240 minutes prior to MK-801 administration.

For data set [3], the target named is human D4 receptor with seven repeat units (D4.7 variant). The conditions noted are these: read-out: EC50 of dopamine; cited from earlier work.
A further data set concerns D4.2 variant. The conditions noted are these: read-out: EC50 of dopamine; cited from earlier work.

Take `Cl.c1ccc(CNCCCOc2cccc(-c3noc4ccsc34)c2)cc1` [Compound 1, benzyl-[3-(3-theino[2,3-d]isoxazol-3-yl-phenoxy)-propyl]-amine hydrochloride]: the melting point (usually the temperature of the solid-liquid transition) was in the range of 195 to 197 °C. In addition, the Ki (usually the equilibrium dissociation constant of an inhibitor or competing ligand from its target) in data set [1] came out at 0.012 µM. In addition, the 50% effective dose (ED50) (usually the midpoint of the dose-response relation) in data set [2] (Mus musculus, PO, MK-801 stereotypy, read-out: In Vivo ED50) came to 14.6 mg/kg.
Consider `Clc1ccc(CNCCOc2cccc(-c3noc4ccsc34)c2)cc1` [Compound 18, (4-chloro-benzyl)-[2-(3-thieno[2,3-d]isoxazol-3-yl-phenoxy)-ethyl]-amine], for which the inhibition constant (Ki) in data set [1] worked out at 0.034 µM. In addition, the inhibition in vivo at 20 mg/kg in data set [2] (Mus musculus, 20 mg/kg) was 37.5%.
On the same counts, the results for `Fc1cccc(CNCCOc2cccc(-c3noc4ccsc34)c2)c1` [Compound 19, (3-fluoro-benzyl)-[2-(3-thieno[2,3-d]isoxazol-3-yl-phenoxy)-ethyl]-amine] are 0.015 µM and 75%.
Taken in the same sequence, the figures for `Cc1ccc(CNCCOc2cccc(-c3noc4ccsc34)c2)cc1` [Compound 20, (4-methyl-benzyl)-[2-(3-thieno[2,3-d]isoxazol-3-yl-phenoxy)-ethyl]-amine] were 0.00527 µM and 37.5%.
Regarding `c1ccc(CNCCOc2cccc(-c3noc4ccsc34)c2)cc1` [Compound 31, benzyl-[2-(3-thieno[2,3-d]isoxazol-3-yl-phenoxy)-ethyl]-amine hydrochloride], the inhibition – broadly, the percentage by which the read-out fell short of the control – at 1 µM in data set [1] (@ 1 μM test compound, 3H-spiperone binding, read-out: D4 RBA % Inhibition (@ 1 μM)) turned out to be 100%. Further, the inhibition in vivo at 20 mg/kg in data set [2] (Mus musculus, 20 mg/kg) stood at 37.5%.
Regarding `Fc1cccc(CNCCOc2cccc(-c3noc4ccsc34)c2)c1.O=C(O)/C=C\C(=O)O` [Compound 32, (3-fluoro-benzyl)-[2-(3-thieno[2,3-d]isoxazol-3-yl-phenoxy)-ethyl]-amine maleate], the Ki in data set [1] amounted to 0.0105 µM. Besides, the “Antag. of MK 801 Stereotypy % Inhib. @ 20 mg/kg” value in data set [2] (PO, 20 mg/kg) was 62.5%.
For `NCCc1ccc(O)c(O)c1` [dopamine], the figures for the EC50 (in data set [3]; in the data set with D4.2 variant) were 0.04 µM and 0.015 µM, respectively.
